Measured values: patent US20240197652A1, “KETAMINE IN THE TREATMENT OF […]” (Awakn LS Europe Holdings Limited, priority 2021, published 2024)

Assays:
Format in all cases: in vivo, human
[1] = Plasma ketamine, HNK and norketamine levels, binge eating disorder subjects (Example 8); conditions: analyte = label; for peak plasma concentration: 100 mg racemic ketamine sublingual; for time of peak plasma concentration: post-administration of 100 mg racemic ketamine sublingual
Method: A study was completed on the use of ketamine to treat binge eating disorder. Subjects were assessed for binge eating disorder using the Binge Eating Scale (BES), and included if they received a BES score greater than 15. Three subjects in total were included (BE1-BE3, and interchangeably on FIGS. 5 and 6 as BED1-BED3, these being the same subjects). All three were administered sublingual lozenges comprising 100 mg of racemic ketamine.
(§1) Blood samples were collected from all three subjects. Blood samples were analysed to determine ketamine and ketamine metabolite levels, as well as the hormones leptin and ghrelin. Self-report measures were conducted.
(§2) The treatment protocol commenced in substantially the same way as disclosed in the ketamine in subjects with gambling disorder study completed in EXAMPLE 7, with the exceptions outlined as follows: No behavioural tasks were completed. Blood samples collected every 10 minutes from the time of administration to 90 minutes post-administration were additionally analysed for leptin and ghrelin. Self-report measures included the Binge Eating Scale, the Adult Attachment Interview (AAI), a 20 question interview about the subject's recollections of their childhood (Sykes and Turner, 2015); the Childhood Trauma Questionnaire; the Morningness-Eveningness Questionnaire (MEQ), a 19-item questionnaire designed to assess when a respondent prefers to wake up or start sleep (American Thoracic Society, 2022); the DSM-5 Binge Eating Disorder diagnostic criteria; and the SPSRQ.

[2] = tested on: subjects with CSBD; test: Adverse events, KSET, Example 10; conditions: three CSBD subjects; 100 mg racemic ketamine sublingual
[3] = tested on: total plasma ghrelin; test: Total plasma ghrelin, Example 8; conditions: for total plasma ghrelin at 90 minutes post-lozenge / % change in total ghrelin: 100 mg racemic ketamine sublingual; for total plasma ghrelin, pre-administration: baseline before 100 mg racemic ketamine sublingual; for % change in total ghrelin: pre-administration to 90 minutes post-lozenge
Method: as §1, §2
Changes in ghrelin and leptin were measured. Ghrelin stimulates appetite and food intake, increases fat deposition, and releases growth hormone. Obese binge eating disorder subjects often have reduced plasma ghrelin, possibly due to the downregulation of ghrelin from excess eating or body fat (Atalayer et al. 2013). Leptin forms a negative feedback loop between fat cells and the hypothalamus, wherein leptin secretion signals the hypothalamus to inhibit food intake and increase energy expenditure. Increased leptin may aid in reducing appetite cravings associated with binge eating disorder (Obradovic et al. 2021).

[4] = tested on: subjects with gaming disorder; test: Craving for Gaming Questionnaire (CGQ), Example 9; conditions: for CGQ score at 2-week follow up: after 100 mg racemic ketamine sublingual; for CGQ score, pre-administration: baseline before 100 mg racemic ketamine sublingual; for % change in Craving for Gaming Questionnaire: pre-administration to 2-week follow up, 100 mg racemic ketamine sublingual
Method: A study was completed on ketamine to treat gaming disorder. Subjects were assessed for gaming disorder using the Internet Gaming Disorder Scale (IGDS) and were included if they received an IGDS score greater than 3. Three subjects in total were included (IG1-IG3). All three were administered sublingual lozenges comprising 100 mg of racemic ketamine.
The treatment protocol commenced in the same manner as disclosed in the ketamine in subjects with gambling disorder study completed in EXAMPLE 7, with the exceptions as follow: No behavioural tasks were completed. Self-report measures completed during EXAMPLE 9 included Social Phobia Inventory (SPIN), the Craving for Gaming Questionnaire (CGQ), and Generalised Anxiety Disorder-7 (GAD-7) the Sensitivity to Reward and Punishment Scale, and the Childhood Trauma Questionnaire, the Morningness-Eveningness Questionnaire (MEQ).

[5] = tested on: subjects with gambling disorder; test: Gambling Related Cognitions Scale (GRCS), gambling expectancy, Example 7; conditions: for problem gambling expectancy score (GRCS) at 2-week follow up: after 100 mg racemic ketamine sublingual; for problem gambling expectancy score (GRCS), pre-administration: baseline before 100 mg racemic ketamine sublingual; for % change in problem gambling expectancy: pre-administration to 2-week follow up, 100 mg racemic ketamine sublingual
Method: The study spanned a total of 30 days (not counting initial contact and prescreening). Prescreening of all subjects was conducted by phone, and subjects recorded self-report measures, including the Sensitivity to Punishment and Sensitivity to Reward Questionnaire (SPSRQ) and the Gambling Related Cognitions Questionnaire. Prior to beginning treatment, each subject completed the Beck Depression Inventory (BDI) to determine a baseline depression score. Total scores of 0-13 are minimal, 14-19 are mild, 20-28 are moderate, and 29-63 are severe (Beck, Steer, and Brown, 1996).
The remaining follow-up sessions were completed online. Follow-up 1 was completed on Day 4, Follow-up 2 on Day 14, and Follow-up 3 on Day 30. At each follow-up session, the same self-report measures and behavioural tasks were completed.
The five-factor Gambling Related Cognitions Scale (GRCS) was also assessed. The GRCS evaluates gambling-related cognitive distortions for all types of gamblers, regardless of their gambling activities (poker, slots, horse racing, etc.) (Levesque et al., 2017). The GRCS contains five main domains, including inability to stop, expectancies, predictive control, illusion of control, and interpretative bias (Muela, Navas, and Perales, 2021). Gambling expectancy and inability to stop were predictive of problem gambling.

[6] = subject BE1 (no data at 30 minutes)

CNC1(c2ccccc2Cl)CCCCC1=O (racemic) [ketamine, 2-(2-chlorophenyl)-2-(methylamino)-cyclohexanone]
peak plasma concentration [1, 6]: about 270 ng/ml
time of peak plasma concentration [1, 6]: 20 min
peak plasma concentration ([1]; subject BE2): about 339 ng/ml
time of peak plasma concentration ([1]; subject BE2): 20 min
peak plasma concentration ([1]; subject BE3): about 208 ng/mL
time of peak plasma concentration ([1]; subject BE3): 60 min
course of adverse events [2]: All adverse events were transient, and resolved two hours post-lozenge
overall tolerability [2]: well-tolerated, with no drop-outs
unexpected adverse reactions (KSET) [2]: No unexpected adverse reactions were observed
total plasma ghrelin at 90 minutes post-lozenge ([3]; subject BE1): 310 pg/mL
total plasma ghrelin, pre-administration ([3]; subject BE1): 254 pg/mL
% change in total ghrelin ([3]; subject BE1): +22.05%
total plasma ghrelin at 90 minutes post-lozenge ([3]; subject BE2): 231 pg/mL
total plasma ghrelin, pre-administration ([3]; subject BE2): 198 pg/mL
% change in total ghrelin ([3]; subject BE2): +16.67%
total plasma ghrelin at 90 minutes post-lozenge ([3]; subject BE3): 274 pg/mL
total plasma ghrelin, pre-administration ([3]; subject BE3): 291 pg/mL
% change in total ghrelin ([3]; subject BE3): −5.84%
CGQ score at 2-week follow up ([4]; subject IG1): 28
CGQ score, pre-administration ([4]; subject IG1): 30
% change in Craving for Gaming Questionnaire ([4]; subject IG1): −6.67%
CGQ score at 2-week follow up ([4]; subject IG2): 15
CGQ score, pre-administration ([4]; subject IG2): 31
% change in Craving for Gaming Questionnaire ([4]; subject IG2): −51.61%
CGQ score at 2-week follow up ([4]; subject IG3): 21
CGQ score, pre-administration ([4]; subject IG3): 45
% change in Craving for Gaming Questionnaire ([4]; subject IG3): −53.33%
problem gambling expectancy score (GRCS) at 2-week follow up ([5]; subject G1): 5.5
problem gambling expectancy score (GRCS), pre-administration ([5]; subject G1): 5
% change in problem gambling expectancy ([5]; subject G1): +10%
problem gambling expectancy score (GRCS) at 2-week follow up ([5]; subject G2): 2.5
problem gambling expectancy score (GRCS), pre-administration ([5]; subject G2): 5.5
% change in problem gambling expectancy ([5]; subject G2): −54.55%
problem gambling expectancy score (GRCS) at 2-week follow up ([5]; subject G3): 4.5
problem gambling expectancy score (GRCS), pre-administration ([5]; subject G3): 5.25
% change in problem gambling expectancy ([5]; subject G3): −14.29%
problem gambling expectancy score (GRCS) at 2-week follow up ([5]; subject G4): 2.5
problem gambling expectancy score (GRCS), pre-administration ([5]; subject G4): 3.75
% change in problem gambling expectancy ([5]; subject G4): −33.33%
problem gambling expectancy score (GRCS) at 2-week follow up ([5]; subject G5): 1
problem gambling expectancy score (GRCS), pre-administration ([5]; subject G5): 1.25
% change in problem gambling expectancy ([5]; subject G5): −20%

N[C@@]1(c2ccccc2Cl)CCC[C@@H](O)C1=O [HNK, (2S,6S;2R,6R)-hydroxynorketamine]
peak plasma concentration [1, 6]: about 53 ng/ml
time of peak plasma concentration [1, 6]: 90 min
peak plasma concentration ([1]; subject BE2): about 108 ng/ml
time of peak plasma concentration ([1]; subject BE2): 80 min
peak plasma concentration ([1]; subject BE3): about 244 ng/mL
time of peak plasma concentration ([1]; subject BE3): 90 min

NC1(c2ccccc2Cl)CCCCC1=O (racemic) [Norketamine, (R,S)-norketamine]
peak plasma concentration [1, 6]: about 81 ng/ml
time of peak plasma concentration [1, 6]: 90 min
peak plasma concentration ([1]; subject BE2): about 685 ng/ml
time of peak plasma concentration ([1]; subject BE2): 40 min
peak plasma concentration ([1]; subject BE3): about 975 ng/mL
time of peak plasma concentration ([1]; subject BE3): 60 min
